Source: PubChem BioAssay (NCI)
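Briefly, cells in 96-well plates were exposed to five compound concentrations for 48 h, and endpoints were estimated by linear interpolation. At the TGI there is no net growth.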

Experiments:
Test in all cases: NCI-60 cell line screen, 48 h
786-0 renal = tested on: 786-0 renal
A498 renal = tested on: A498 renal
A549 NSCLC = tested on: A549 NSCLC
ACHN renal = tested on: ACHN renal
CAKI-1 renal = tested on: CAKI-1 renal
CCRF-CEM leukemia = tested on: CCRF-CEM leukemia
COLO 205 colon = tested on: COLO 205 colon
DLD-1 colon = tested on: DLD-1 colon
DMS 114 small cell lung = tested on: DMS 114 small cell lung
HCT-116 colon = tested on: HCT-116 colon
HCT-15 colon = tested on: HCT-15 colon
HL-60(TB) leukemia = tested on: HL-60(TB) leukemia
HOP-18 NSCLC = tested on: HOP-18 NSCLC
HOP-62 NSCLC = tested on: HOP-62 NSCLC
HOP-92 NSCLC = tested on: HOP-92 NSCLC
HT29 colon = tested on: HT29 colon
IGROV1 ovarian = tested on: IGROV1 ovarian
K-562 leukemia = tested on: K-562 leukemia
KM12 colon = tested on: KM12 colon
KM20L2 colon = tested on: KM20L2 colon
LOX IMVI melanoma = tested on: LOX IMVI melanoma
LXFL 529 NSCLC = tested on: LXFL 529 NSCLC
M14 melanoma = tested on: M14 melanoma
M19-MEL melanoma = tested on: M19-MEL melanoma
MALME-3M melanoma = tested on: MALME-3M melanoma
MOLT-4 leukemia = tested on: MOLT-4 leukemia
NCI-H226 lung = tested on: NCI-H226 lung
NCI-H23 lung = tested on: NCI-H23 lung
NCI-H460 lung = tested on: NCI-H460 lung
NCI-H522 lung = tested on: NCI-H522 lung
OVCAR-3 ovarian = tested on: OVCAR-3 ovarian
OVCAR-4 ovarian = tested on: OVCAR-4 ovarian
OVCAR-5 ovarian = tested on: OVCAR-5 ovarian
OVCAR-8 ovarian = tested on: OVCAR-8 ovarian
RPMI-8226 leukemia = tested on: RPMI-8226 leukemia
SF-268 CNS = tested on: SF-268 CNS
SF-295 CNS = tested on: SF-295 CNS
SF-539 CNS = tested on: SF-539 CNS
SK-MEL-2 melanoma = tested on: SK-MEL-2 melanoma
SK-MEL-28 melanoma = tested on: SK-MEL-28 melanoma
SK-MEL-5 melanoma = tested on: SK-MEL-5 melanoma
SK-OV-3 ovarian = tested on: SK-OV-3 ovarian
SN12C renal = tested on: SN12C renal
SNB-19 CNS = tested on: SNB-19 CNS
SNB-78 CNS = tested on: SNB-78 CNS
SR leukemia = tested on: SR leukemia
SW-620 colon = tested on: SW-620 colon
TK-10 renal = tested on: TK-10 renal
U251 CNS = tested on: U251 CNS
UACC-257 melanoma = tested on: UACC-257 melanoma
UACC-62 melanoma = tested on: UACC-62 melanoma
UO-31 renal = tested on: UO-31 renal
DMS 273 small cell lung = tested on: DMS 273 small cell lung
HCC-2998 colon = tested on: HCC-2998 colon

**Q.** Which results are given for CCN(CC)CCNc1ccc2ncn3c4ccccc4c(=O)c1c23?
**A.** TGI (786-0 renal): 15.4 µM; TGI (A498 renal): 20.6 µM; TGI (A549 NSCLC): 10.2 µM; TGI (ACHN renal): 12.2 µM; TGI (CAKI-1 renal): 6.73 µM; TGI (CCRF-CEM leukemia): > 100 µM; TGI (COLO 205 colon): 9.78 µM; TGI (DLD-1 colon): 18.9 µM; TGI (DMS 114 small cell lung): 17.5 µM; TGI (HCT-116 colon): 12.8 µM; TGI (HCT-15 colon): 16 µM; TGI (HL-60(TB) leukemia): > 100 µM; TGI (HOP-18 NSCLC): 37.4 µM; TGI (HOP-62 NSCLC): 21.6 µM; TGI (HOP-92 NSCLC): 10.4 µM; TGI (HT29 colon): 11 µM; TGI (IGROV1 ovarian): 15.7 µM; TGI (K-562 leukemia): > 100 µM; TGI (KM12 colon): 17.6 µM; TGI (KM20L2 colon): 17.9 µM; TGI (LOX IMVI melanoma): 3.73 µM; TGI (LXFL 529 NSCLC): 18.3 µM; TGI (M14 melanoma): 16.8 µM; TGI (M19-MEL melanoma): 13.9 µM; TGI (MALME-3M melanoma): 15.1 µM; TGI (MOLT-4 leukemia): > 100 µM; TGI (NCI-H226 lung): 7.67 µM; TGI (NCI-H23 lung): 19.8 µM; TGI (NCI-H460 lung): 8.98 µM; TGI (NCI-H522 lung): 12.3 µM; TGI (OVCAR-3 ovarian): 49.7 µM; TGI (OVCAR-4 ovarian): 9.53 µM; TGI (OVCAR-5 ovarian): 34.1 µM; TGI (OVCAR-8 ovarian): 13.3 µM; TGI (RPMI-8226 leukemia): > 100 µM; TGI (SF-268 CNS): 18.7 µM; TGI (SF-295 CNS): 14.5 µM; TGI (SF-539 CNS): 18 µM; TGI (SK-MEL-2 melanoma): 16.3 µM; TGI (SK-MEL-28 melanoma): 16.4 µM; TGI (SK-MEL-5 melanoma): 13.3 µM; TGI (SK-OV-3 ovarian): 14.3 µM; TGI (SN12C renal): > 100 µM; TGI (SNB-19 CNS): 32 µM; TGI (SNB-78 CNS): 18.9 µM; TGI (SR leukemia): > 100 µM; TGI (SW-620 colon): 16 µM; TGI (TK-10 renal): 79.9 µM; TGI (U251 CNS): 17.5 µM; TGI (UACC-257 melanoma): 15.1 µM; TGI (UACC-62 melanoma): 14.6 µM; TGI (UO-31 renal): 12.2 µM

**Q.** How did the TGI (786-0 renal) turn out when O=C(O)CSc1ccc2[nH]c3ccccc3c(=O)c2c1 was run?
**A.** > 100 µM

**Q.** And the TGI (A498 renal)?
**A.** > 100 µM

**Q.** What about the TGI (A549 NSCLC) of the same compound?
**A.** > 100 µM

**Q.** What about the TGI (ACHN renal) of the same compound?
**A.** > 100 µM

**Q.** What about the TGI (CAKI-1 renal) of the same compound?
**A.** > 100 µM

**Q.** And the TGI (CCRF-CEM leukemia)?
**A.** > 100 µM

**Q.** And the TGI (COLO 205 colon)?
**A.** > 100 µM

**Q.** And the TGI (DLD-1 colon)?
**A.** > 100 µM

**Q.** And the TGI (DMS 114 small cell lung)?
**A.** > 100 µM

**Q.** What about the TGI (DMS 273 small cell lung) of the same compound?
**A.** > 100 µM

**Q.** And the TGI (HCC-2998 colon)?
**A.** > 100 µM

**Q.** And the TGI (HCT-116 colon)?
**A.** > 100 µM

**Q.** And the TGI (HCT-15 colon)?
**A.** > 100 µM

**Q.** And the TGI (HL-60(TB) leukemia)?
**A.** > 100 µM

**Q.** And the TGI (HOP-18 NSCLC)?
**A.** > 100 µM

**Q.** What about the TGI (HOP-62 NSCLC) of the same compound?
**A.** > 100 µM

**Q.** What about the TGI (HOP-92 NSCLC) of the same compound?
**A.** > 100 µM

**Q.** What about the TGI (HT29 colon) of the same compound?
**A.** > 100 µM

**Q.** And the TGI (IGROV1 ovarian)?
**A.** > 100 µM

**Q.** And the TGI (K-562 leukemia)?
**A.** > 100 µM

**Q.** What about the TGI (KM20L2 colon) of the same compound?
**A.** > 100 µM

**Q.** And the TGI (LOX IMVI melanoma)?
**A.** > 100 µM

**Q.** And the TGI (LXFL 529 NSCLC)?
**A.** > 100 µM

**Q.** And the TGI (M14 melanoma)?
**A.** > 100 µM

**Q.** And the TGI (M19-MEL melanoma)?
**A.** > 100 µM

**Q.** What about the TGI (MALME-3M melanoma) of the same compound?
**A.** > 100 µM

**Q.** What about the TGI (MOLT-4 leukemia) of the same compound?
**A.** > 100 µM

**Q.** And the TGI (NCI-H226 lung)?
**A.** > 100 µM

**Q.** What about the TGI (NCI-H23 lung) of the same compound?
**A.** > 100 µM

**Q.** And the TGI (NCI-H460 lung)?
**A.** > 100 µM

**Q.** What about the TGI (OVCAR-3 ovarian) of the same compound?
**A.** > 100 µM

**Q.** What about the TGI (OVCAR-4 ovarian) of the same compound?
**A.** > 100 µM

**Q.** And the TGI (OVCAR-5 ovarian)?
**A.** > 100 µM

**Q.** And the TGI (OVCAR-8 ovarian)?
**A.** > 100 µM

**Q.** And the TGI (RPMI-8226 leukemia)?
**A.** > 100 µM

**Q.** And the TGI (SF-268 CNS)?
**A.** > 100 µM

**Q.** What about the TGI (SF-295 CNS) of the same compound?
**A.** > 100 µM

**Q.** And the TGI (SK-MEL-28 melanoma)?
**A.** > 100 µM

**Q.** What about the TGI (SK-MEL-5 melanoma) of the same compound?
**A.** > 100 µM

**Q.** And the TGI (SK-OV-3 ovarian)?
**A.** > 100 µM

**Q.** What about the TGI (SN12C renal) of the same compound?
**A.** > 100 µM

**Q.** And the TGI (SNB-19 CNS)?
**A.** > 100 µM

**Q.** What about the TGI (SR leukemia) of the same compound?
**A.** > 100 µM

**Q.** What about the TGI (SW-620 colon) of the same compound?
**A.** > 100 µM

**Q.** And the TGI (TK-10 renal)?
**A.** > 100 µM

**Q.** What about the TGI (U251 CNS) of the same compound?
**A.** > 100 µM

**Q.** What about the TGI (UACC-257 melanoma) of the same compound?
**A.** > 100 µM

**Q.** And the TGI (UACC-62 melanoma)?
**A.** > 100 µM

**Q.** What about the TGI (UO-31 renal) of the same compound?
**A.** > 100 µM
